In PMC10557102 (Pharmacology Research & Perspectives, 2023):
Where two headings read alike, the source gives them in different places.

Tests used:
CYP2C8 [1] = molecular target: T1, CYP2C8 (Homo sapiens, UniProt P10632); assay: Competitive; assay type: in vitro ADME
T1 sequence (P10632 1-490): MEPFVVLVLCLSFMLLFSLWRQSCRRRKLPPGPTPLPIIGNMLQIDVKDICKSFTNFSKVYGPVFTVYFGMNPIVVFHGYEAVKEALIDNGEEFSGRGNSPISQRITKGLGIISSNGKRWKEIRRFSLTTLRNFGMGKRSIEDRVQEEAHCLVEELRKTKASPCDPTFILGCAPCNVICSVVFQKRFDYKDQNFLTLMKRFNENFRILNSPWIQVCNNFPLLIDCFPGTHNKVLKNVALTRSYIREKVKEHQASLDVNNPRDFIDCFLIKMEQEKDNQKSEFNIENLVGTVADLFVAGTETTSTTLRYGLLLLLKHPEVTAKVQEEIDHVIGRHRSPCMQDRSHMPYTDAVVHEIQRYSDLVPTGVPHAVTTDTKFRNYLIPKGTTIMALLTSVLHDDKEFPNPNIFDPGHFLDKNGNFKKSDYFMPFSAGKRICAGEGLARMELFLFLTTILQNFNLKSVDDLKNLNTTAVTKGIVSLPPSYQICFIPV

CYP2C19 [2] = molecular target: T2, CYP2C19 (Homo sapiens, UniProt P33261)
CYP2B6 [3] = molecular target: T3, CYP2B6 (Homo sapiens, UniProt P20813); assay: Competitive; assay type: in vitro ADME
T3 sequence (P20813 1-491): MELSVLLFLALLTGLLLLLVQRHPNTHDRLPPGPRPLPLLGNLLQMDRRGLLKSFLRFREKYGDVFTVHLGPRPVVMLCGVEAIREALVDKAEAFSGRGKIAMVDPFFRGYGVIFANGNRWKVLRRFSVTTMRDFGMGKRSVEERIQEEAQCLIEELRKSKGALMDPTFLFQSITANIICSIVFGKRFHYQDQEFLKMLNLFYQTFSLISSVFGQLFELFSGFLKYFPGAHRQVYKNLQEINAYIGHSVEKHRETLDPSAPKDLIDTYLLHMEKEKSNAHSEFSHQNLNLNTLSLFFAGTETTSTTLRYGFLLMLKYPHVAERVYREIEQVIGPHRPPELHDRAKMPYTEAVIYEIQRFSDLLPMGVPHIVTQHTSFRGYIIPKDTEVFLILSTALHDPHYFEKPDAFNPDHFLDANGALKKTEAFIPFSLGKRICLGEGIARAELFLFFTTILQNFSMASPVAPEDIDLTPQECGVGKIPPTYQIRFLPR

CYP2C19 [4] = molecular target: T2, CYP2C19; assay: in vitro; assay type: in vitro ADME
CYP2D6 [5] = molecular target: T4, CYP2D6 (Homo sapiens, UniProt P10635); assay: Competitive; assay type: in vitro ADME
CYP2D6 [6] = molecular target: T4, CYP2D6; assay: Time-dependent; assay type: in vitro ADME; details: 30 min pre‐incubation with/without NADPH; dextromethorphan N‐demethylation
CYP2B6 [7] = molecular target: T3, CYP2B6; assay: Time-dependent; assay type: in vitro ADME; details: 30 min pre‐incubation with/without NADPH; bupropion hydroxylation
healthy subjects = assay: Safety and tolerability in the clinical study
CYP2C9 [8] = test system: CYP2C9
CYP3A4 [9] = molecular target: T5, CYP3A4 (Homo sapiens, UniProt P08684); assay: Time-dependent; assay type: in vitro ADME; details: for IC50 shift: 30 min pre‐incubation with/without NADPH
CYP2C19 [10] = molecular target: T2, CYP2C19; assay: biochemical; assay type: in vitro ADME
human OX1R = details: OX1R vs OX2R; cited from earlier work
CYP2C9 [11] = assay: Time-dependent; assay type: in vitro ADME, human; details: 30 min pre‐incubation with/without NADPH; diclofenac 4′‐hydroxylation
CYP2C8 [12] = molecular target: T1, CYP2C8; assay: Time-dependent; assay type: in vitro ADME; details: 30 min pre‐incubation with/without NADPH; paclitaxel 6α‐hydroxylation
CYP3A4 [13] = molecular target: T5, CYP3A4; details: cited from earlier work
CYP2C19 [14] = molecular target: T2, CYP2C19; assay: Covalent binding; assay type: in vitro ADME; details: data not shown
CYP2C9 [15] = molecular target: CYP2C9 (Homo sapiens, UniProt P11712); assay: Competitive; assay type: in vitro ADME
CYP3A4 [16] = molecular target: T5, CYP3A4; details: in man; cited from earlier work
CYP3A4 [17] = molecular target: T5, CYP3A4; assay: Competitive; assay type: in vitro ADME
[18] = after 8 days / repeated 100 mg b.i.d., steady state

T5 sequence (P08684 whole entry): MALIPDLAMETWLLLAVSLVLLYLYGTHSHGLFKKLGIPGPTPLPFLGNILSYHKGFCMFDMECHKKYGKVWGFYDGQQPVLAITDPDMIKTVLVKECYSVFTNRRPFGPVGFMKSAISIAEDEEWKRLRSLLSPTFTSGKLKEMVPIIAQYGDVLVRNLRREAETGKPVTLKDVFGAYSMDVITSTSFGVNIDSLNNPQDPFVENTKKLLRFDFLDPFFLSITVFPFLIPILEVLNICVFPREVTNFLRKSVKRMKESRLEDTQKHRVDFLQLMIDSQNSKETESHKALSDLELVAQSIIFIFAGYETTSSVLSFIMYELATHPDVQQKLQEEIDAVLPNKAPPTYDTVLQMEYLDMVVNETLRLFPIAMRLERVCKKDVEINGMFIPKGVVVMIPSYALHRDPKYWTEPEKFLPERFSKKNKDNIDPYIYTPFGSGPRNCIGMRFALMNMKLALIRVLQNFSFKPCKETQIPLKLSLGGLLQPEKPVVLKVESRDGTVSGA
T4 sequence (P10635 whole entry): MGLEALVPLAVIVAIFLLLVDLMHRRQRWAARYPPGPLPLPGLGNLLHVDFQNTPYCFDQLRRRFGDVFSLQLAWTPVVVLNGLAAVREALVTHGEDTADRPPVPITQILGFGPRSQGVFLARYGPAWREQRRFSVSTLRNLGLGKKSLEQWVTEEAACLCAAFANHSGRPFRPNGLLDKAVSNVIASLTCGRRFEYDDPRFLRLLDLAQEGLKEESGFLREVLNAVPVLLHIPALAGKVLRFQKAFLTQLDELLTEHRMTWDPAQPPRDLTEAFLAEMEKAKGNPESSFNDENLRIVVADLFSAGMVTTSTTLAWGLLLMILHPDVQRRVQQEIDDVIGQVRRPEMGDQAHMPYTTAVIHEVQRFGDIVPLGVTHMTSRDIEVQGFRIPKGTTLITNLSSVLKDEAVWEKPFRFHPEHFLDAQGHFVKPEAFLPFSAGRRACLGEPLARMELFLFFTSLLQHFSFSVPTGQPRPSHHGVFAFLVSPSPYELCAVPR
T2 sequence (P33261 whole entry): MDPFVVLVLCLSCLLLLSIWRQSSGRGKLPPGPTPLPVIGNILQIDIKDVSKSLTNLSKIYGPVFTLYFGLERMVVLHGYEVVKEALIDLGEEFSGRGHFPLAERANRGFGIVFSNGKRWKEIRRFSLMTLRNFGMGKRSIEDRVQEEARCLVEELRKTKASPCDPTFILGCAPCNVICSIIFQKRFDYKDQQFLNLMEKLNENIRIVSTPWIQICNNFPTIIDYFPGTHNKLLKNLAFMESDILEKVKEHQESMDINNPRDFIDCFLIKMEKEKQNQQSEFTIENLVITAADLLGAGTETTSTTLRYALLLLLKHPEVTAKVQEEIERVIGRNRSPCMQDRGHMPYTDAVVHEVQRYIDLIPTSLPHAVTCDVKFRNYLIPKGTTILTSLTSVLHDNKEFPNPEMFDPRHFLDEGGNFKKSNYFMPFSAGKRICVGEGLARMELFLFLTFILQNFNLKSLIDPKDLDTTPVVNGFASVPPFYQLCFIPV
Chain of CYP2C9 (Homo sapiens, UniProt P11712) (P11712 whole entry): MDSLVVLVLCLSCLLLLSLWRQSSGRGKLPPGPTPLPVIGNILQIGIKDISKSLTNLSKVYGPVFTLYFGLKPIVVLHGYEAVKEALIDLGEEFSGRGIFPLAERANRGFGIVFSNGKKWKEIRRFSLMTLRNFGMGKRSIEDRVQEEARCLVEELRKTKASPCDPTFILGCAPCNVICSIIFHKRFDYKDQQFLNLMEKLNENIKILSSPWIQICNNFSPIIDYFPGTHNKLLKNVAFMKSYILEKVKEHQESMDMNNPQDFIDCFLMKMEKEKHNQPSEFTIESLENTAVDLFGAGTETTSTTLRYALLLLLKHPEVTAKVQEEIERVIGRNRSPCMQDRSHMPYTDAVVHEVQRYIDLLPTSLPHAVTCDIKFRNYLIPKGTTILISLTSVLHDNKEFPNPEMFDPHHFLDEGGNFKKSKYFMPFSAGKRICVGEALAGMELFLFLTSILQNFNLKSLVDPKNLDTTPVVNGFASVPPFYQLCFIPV

## Cc1ccc(C(=O)N2CCOC[C@H]2Cc2cccc(-n3nccn3)c2)c(-n2nccn2)c1 [nivasorexant]
CYP2C8 [1]
  IC50: 25 µM
CYP2C19 [2]; after 1 day of 100 mg b.i.d.
  CYP2C19 inhibitor classification according to regulatory guidance: moderate (≥ 2‐ to <5‐fold)
CYP2C19 [2]; [18]
  CYP2C19 inhibitor classification according to regulatory guidance: strong (≥5‐fold)
CYP2B6 [3]
  IC50: > 100 µM
CYP2C19 [4]; human, recombinant enzyme
  IC50 shift at 30 min: 67
CYP2C19 [4]; recombinant CYP2C19
  K I (inhibition constant of the CYP enzyme inactivation): 4.2 µM
  k inact (rate of enzyme inactivation): 0.079 min⁻¹
CYP2D6 [5]
  IC50: > 100 µM
CYP2D6 [6]
  IC50 shift: no effect and none
CYP2B6 [7]
  IC50 shift: none
Healthy subjects; Day 1 to Day 15, healthy subjects
  safety and tolerability (in words): safe and well tolerated
Healthy subjects; Treatment B: cocktail + initial 100 mg nivasorexant, Day 8
  somnolence, subjects (%): 1 (4.5%) subjects (%)
Healthy subjects; Treatment C: nivasorexant 100 mg b.i.d. alone, Day 9–14
  somnolence, subjects (%): 2 (9.1%) subjects (%)
Healthy subjects; Treatment D: cocktail + nivasorexant at steady state, Day 15
  somnolence, subjects (%): 5 (23.8%) subjects (%)
CYP2C9 [8]; [18]
  CYP2C9 inhibitor classification according to regulatory guidance: weak (≥1.25‐ to <2‐fold)
CYP2C9 [8]; initial administration on Day 8, 90% CIs of GMR within 0.8–1.25
  perpetrator DDI potential with respect to CYP2C9 (in words): lack of perpetrator DDI potential
CYP3A4 [9]; midazolam 1′‐hydroxylation
  IC50 shift: none
CYP3A4 [9]; testosterone 6β‐hydroxylation
  IC50 shift: none
CYP3A4 [9]; time‐dependent inhibition assay
  effect of pre‐incubation on CYP3A4 activity (in words, probe not stated): no pre‐incubation effect
CYP2C19 [10]
  IC50: 1.6 µM
Human OX1R
  higher potency at human OX1R than at human OX2R: approximately 60 fold
CYP2C9 [11]
  IC50 shift: no effect and no pre‐incubation effect and none
CYP2C8 [12]
  IC50 shift: no effect and none
CYP3A4 [13]; 200 mg b.i.d. nivasorexant
  time to steady‐state conditions: 4 to 5 days
CYP3A4 [13]; after b.i.d. administration of 200 mg for 10 days
  CYP3A4 inhibitor classification: moderate (≥ 2‐ to <5‐fold)
CYP2C19 [14]
  covalent binding (in words): covalently binds
CYP2C9 [15]
  IC50: 8.6 µM
  Ki: 5 µM
CYP3A4 [16]
  extent of microsomal metabolism dependent on CYP3A4: approximately 90%
CYP3A4 [17]
  IC50: 44 µM
CYP3A4 [17]; IC50 (range over both probe substrates), midazolam and testosterone as probes
  IC50: 19 to 44 µM
CYP3A4 [17]; IC50, human liver microsomes, midazolam 1′‐hydroxylation
  IC50: 19 µM
